How the values were obtained:
Format in all cases: in vivo
[1] = test system: Zea mays (ZEAMX); experiment: D. Pre-emergence effect on useful plants, ZEAMX; conditions: useful plant, application rate 80 g/ha
Outline: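 Seeds sown in pots and covered with soil; WP or EC formulations sprayed on the soil surface as aqueous suspension/emulsion with 0.5% additive at 600 l/ha water. Plants grown in greenhouse; crop damage scored visually after about 3 weeks as % versus untreated controls (100% = dead, 0% = like control).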

[2] = test system: Pharbitis purpurea (PHBPU); experiment: C. Herbicidal pre-emergence efficacy, PHBPU; conditions: scored after about 3 weeks
Source text: (§1) Seeds of monocotyledonous and dicotyledonous weed plants and crop plants were placed in plastic or organic planting pots and covered with soil. The compounds of the invention, formulated in the form of wettable powders (WP) or as emulsion concentrates (EC), were then applied to the surface of the covering soil as aqueous suspension or emulsion with addition of 0.5% additive at a water application rate equivalent to 600 l/ha (converted). After the treatment, the pots were placed in a greenhouse and kept under good growth conditions for the test plants. After about 3 weeks, the efficacy of the preparations was scored visually in comparison with untreated controls as percentages. For example, • 100% efficacy=plants have died, • 0% efficacy=like untreated control plants.
(§2) Tables C1a to C14b below show the effects of selected compounds of the general formula (I) according to table 1 on various harmful plants at an application rate corresponding to 320 g/ha or less, which were obtained by the experimental procedure mentioned above.

[3] = test system: Amaranthus retroflexus (AMARE); experiment: E. Herbicidal post-emergence efficacy, AMARE
Outline: (§3)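 Greenhouse post-emergence spray, one-leaf stage (2–3 wk after sowing, sandy loam); WP/EC formulation, aqueous + 0.5% additive, 600 l/ha water; rates 320 g/ha or less. Visual rating ~3 wk later vs untreated; 0% = control-like, 100% = dead.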

[4] = test system: Stellaria media (STEME); experiment: B. Herbicidal post-emergence efficacy, STEME
Outline: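 Post-emergence foliar spray, at application rates of 1280 g/ha or less, on one-leaf-stage plants 2–3 weeks post-sowing, using aqueous WP or EC suspensions with 0.5% additive at 600 L/ha. Visual percent efficacy relative to untreated plants scored roughly 3 weeks later in the greenhouse.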

[5] = test system: Avena fatua (AVEFA); experiment: C. Herbicidal pre-emergence efficacy, AVEFA; conditions: 320 g/ha, scored after about 3 weeks
Source text: as §1, §2

[6] = test system: Alopecurus myosuroides (ALOMY); experiment: E. Herbicidal post-emergence efficacy, ALOMY
Outline: as §3

[7] = test system: Digitaria sanguinalis (DIGSA); experiment: E. Herbicidal post-emergence efficacy, DIGSA
Experimental: Seeds of monocotyledonous and dicotyledonous weeds and crop plants were placed in sandy loam in plastic or organic planting pots, covered with soil and cultivated in a greenhouse under controlled growth conditions. 2 to 3 weeks after sowing, the test plants were treated at the one-leaf stage. The compounds of the invention, formulated in the form of wettable powders (WP) or as emulsion concentrates (EC), were then sprayed onto the green parts of the plants as aqueous suspension or emulsion with addition of 0.5% additive at a water application rate of 600 l/ha (converted). After the test plants had been kept in the greenhouse under optimum growth conditions for about 3 weeks, the activity of the preparations was rated visually in comparison to untreated controls.
For example, • 100% efficacy=plants have died, • 0% action=like untreated control plants.
Tables E1a to E12b below show the effects of selected compounds of the general formula (I) according to table 1 on various harmful plants at an application rate corresponding to 320 g/ha or less, which were obtained by the experimental procedure mentioned above.

[8] = test system: Lolium rigidum (LOLRI); experiment: B. Herbicidal post-emergence efficacy, LOLRI
Experimental: Seeds of mono- and dicotyledonous weed plants were placed in plastic pots in sandy loam soil (doubly sown with in each case one species of mono- or dicotyledonous weed plants per pot), covered with soil and cultivated in a greenhouse under controlled growth conditions. 2 to 3 weeks after sowing, the test plants were treated at the one-leaf stage. The compounds of the invention, formulated in the form of wettable powders (WP) or as emulsion concentrates (EC), were applied onto the green parts of the plants as aqueous suspension or emulsion with addition of 0.5% additive at a water application rate of 600 liters per hectare (converted). After the test plants had been kept in the greenhouse under optimum growth conditions for about 3 weeks, the activity of the preparations was rated visually in comparison to untreated controls.
For example, • 100% efficacy=plants have died, • 0% efficacy=like untreated control plants
Tables B1a to B12c below show the effects of selected inventive compounds of the general formula (I) according to table 1 on various harmful plants at an application rate corresponding to 1280 g/ha or less, which were obtained by the experimental procedure mentioned above.

O=S(=O)(CCCCl)Oc1ccccc1Oc1ncc(F)cn1 [Example I-5]
Pre-emergence efficacy against ZEAMX in % [1]: 20% | Pre-emergence efficacy against PHBPU ([2]; 320 g/ha): 80% | Post-emergence efficacy against AMARE in % ([3]; application rate 80 g/ha): 100% | Post-emergence efficacy against AMARE in % ([3]; application rate 320 g/ha): 100% | Post-emergence efficacy against STEME ([4]; 80 g/ha): 100% | Post-emergence efficacy against STEME ([4]; 320 g/ha): 100% | Post-emergence efficacy against STEME ([4]; 1280 g/ha): 100% | Pre-emergence efficacy against AVEFA [5]: 80% | Post-emergence efficacy against ALOMY in % ([6]; application rate 80 g/ha): 80% | Post-emergence efficacy against ALOMY in % ([6]; application rate 320 g/ha): 90%

CCCCS(=O)(=O)Oc1ccccc1Oc1ncc(Cl)cn1 [Example I-6]
Pre-emergence efficacy against PHBPU ([2]; 320 g/ha): 80% | Post-emergence efficacy against AMARE in % ([3]; application rate 80 g/ha): 90% | Post-emergence efficacy against AMARE in % ([3]; application rate 320 g/ha): 100% | Post-emergence efficacy against DIGSA in % ([7]; application rate 80 g/ha): 80% | Post-emergence efficacy against DIGSA in % ([7]; application rate 320 g/ha): 100% | Post-emergence efficacy against STEME ([4]; 320 g/ha): 90% | Post-emergence efficacy against STEME ([4]; 1280 g/ha): 90% | Pre-emergence efficacy against AVEFA [5]: 80% | Post-emergence efficacy against ALOMY in % ([6]; application rate 320 g/ha): 90%

CC(C)CS(=O)(=O)Oc1ccccc1Oc1ncc(Cl)cn1 [Example I-7, [2-(5-Chloropyrimidin-2-yl)oxyphenyl] 2-methylpropane-1-sulfonate]
Post-emergence efficacy against AMARE in % ([3]; application rate 80 g/ha): 90% | Post-emergence efficacy against AMARE in % ([3]; application rate 320 g/ha): 100% | Post-emergence efficacy against DIGSA in % ([7]; application rate 80 g/ha): 90% | Post-emergence efficacy against DIGSA in % ([7]; application rate 320 g/ha): 100% | Post-emergence efficacy against STEME ([4]; 320 g/ha): 90% | Post-emergence efficacy against STEME ([4]; 1280 g/ha): 90% | Pre-emergence efficacy against AVEFA [5]: 90% | Post-emergence efficacy against ALOMY in % ([6]; application rate 320 g/ha): 90%

O=S(=O)(CCC(F)(F)F)Oc1ccccc1Oc1ncc(Cl)cn1 [Example I-8]
Pre-emergence efficacy against PHBPU ([2]; 320 g/ha): 80% | Post-emergence efficacy against AMARE in % ([3]; application rate 80 g/ha): 100% | Post-emergence efficacy against AMARE in % ([3]; application rate 320 g/ha): 100% | Post-emergence efficacy against DIGSA in % ([7]; application rate 80 g/ha): 80% | Post-emergence efficacy against DIGSA in % ([7]; application rate 320 g/ha): 90% | Post-emergence efficacy against LOLRI ([8]; 1280 g/ha): 90% | Post-emergence efficacy against STEME ([4]; 320 g/ha): 90% | Post-emergence efficacy against STEME ([4]; 1280 g/ha): 90% | Pre-emergence efficacy against AVEFA [5]: 90% | Post-emergence efficacy against ALOMY in % ([6]; application rate 320 g/ha): 90%

O=S(=O)(CCCC(F)(F)F)Oc1ccccc1Oc1ncc(Cl)cn1 [Example I-10]
Pre-emergence efficacy against PHBPU ([2]; 80 g/ha): 100% | Pre-emergence efficacy against PHBPU ([2]; 320 g/ha): 100% | Post-emergence efficacy against AMARE in % ([3]; application rate 80 g/ha): 100% | Post-emergence efficacy against AMARE in % ([3]; application rate 320 g/ha): 100% | Post-emergence efficacy against DIGSA in % ([7]; application rate 80 g/ha): 90% | Post-emergence efficacy against DIGSA in % ([7]; application rate 320 g/ha): 90% | Post-emergence efficacy against LOLRI ([8]; 320 g/ha): 90% | Post-emergence efficacy against LOLRI ([8]; 1280 g/ha): 100% | Post-emergence efficacy against STEME ([4]; 80 g/ha): 90% | Post-emergence efficacy against STEME ([4]; 320 g/ha): 90% | Post-emergence efficacy against STEME ([4]; 1280 g/ha): 100% | Pre-emergence efficacy against AVEFA [5]: 90% | Post-emergence efficacy against ALOMY in % ([6]; application rate 80 g/ha): 90% | Post-emergence efficacy against ALOMY in % ([6]; application rate 320 g/ha): 100%
